Measured values taken from patent US12492211B2, “Crystalline form of nitrogen-containing tricyclic compound and use thereof” (SUNSHINE LAKE PHARMA CO., LTD., priority 2019, dated 2025).

What was measured:
[1] = Hygroscopicity test by dynamic moisture adsorption (DVS); format: physicochemical; conditions: relative humidity of 80%
Protocol: The description of the hygroscopic feature and the definition of the hygroscopic weight gain (Chinese Pharmacopoeia 2015 edition, Appendix 9103 Guidelines for Drug Hygroscopicity Tests, experimental conditions: 25° C.±1° C., 80%±2% relative humidity) are as described in the table below.
An appropriate amount of the test sample was taken and the hygroscopicity of the test sample was tested by dynamic moisture adsorption device. […] That is, the crystal form A of the invention is not easily deliquescent under the influence of high humidity.

[2] = Pharmacokinetic test in Beagle dogs, oral capsules; format: in vivo; conditions: 5 mg/kg oral
Protocol: The crystal form A of compound having Formula (I) named 2-((5-cyclopropyl-3-(2,6-dichlorophenyl)isoxazol-4-yl)methoxy)-10H-spiro[benzo[6,7]oxepino[3,2-b]pyridine-11,1′-cyclopropane]-7-carboxylic acid was filled into capsules, which was for oral administration.
8-12 kg Male Beagle dogs were given 5 mg/kg test sample orally, with 3 animals in each group. Blood samples were taken at time points of 0.25, 0.5, 1.0, 2.0, 4.0, 6.0, 8.0, 12 and 24 h. Standard curve was plotted based on concentrations of the samples in a suitable range, the concentration of the test sample in the plasma sample was measured and quantified by AB SCIEX API4000 LC-MS/MS at MRM mode. Pharmacokinetic parameters were calculated according to drug concentration-time curve using a noncompartmental model by WinNonLin 6.3 software.

[3] = Stability test: high-humidity test (25° C., RH 90%±5%); format: physicochemical; conditions: for Appearance / Purity (%): High-humidity 25° C., RH 90%±5%; for Purity (%): HPLC
Protocol: (§1) (2) High-humidity test: A batch of the test sample was taken into a flat weighing bottle, divided into ≤5 mm thick thin layer. The sample was placed at 25° C., RH 90%±5% for 30 days. The sample was then sampled at day 5, day 10 and day 30, and the change of the sample's color was observed. The purity of the sample was detected by HPLC, and the structure of the sample was analyzed by X-ray powder diffraction, the change of X-ray powder diffraction in high humidity test was […] as shown in FIG. 5.

[4] = Stability test: light test (4500±500lx, UV); format: physicochemical; conditions: for Appearance / Purity (%): Light 4500±500lx, UV; for Purity (%): HPLC
Protocol: as §1, with “(3) Light” for “(2) High-humidity”, “placed in an opened light box (with UV)” for “placed”, “the illuminance 4500±500lx, UV light ≥0.7 w/m^2” for “25° C., RH 90%±5%”, “13” for “10”, “light” for “high humidity”, “6.” for “5.”

[5] = Stability test: high-temperature test (60° C.); format: physicochemical; conditions: for Purity (%): HPLC
Protocol: as §1, with “(1) High-temperature” for “(2) High-humidity”, “60° C.” for “25° C., RH 90%±5%”, “temperature” for “humidity”, “4.” for “5.”

[6] = dog, plasma, male Beagle dogs, capsules
[7] = High-temperature 60° C., 5 days
[8] = High-temperature 60° C., 10 days
[9] = High-temperature 60° C., 30 days

- hygroscopic feature according to the criterion for the hygroscopic weight gain [1]: no or almost none hygroscopicity
- weight gain after equilibrium [1]: less than 0.1%
- exposure in Beagle dogs ([2]; conclusion in words): relatively large exposure
- AUC(0-t) [2, 6]: 0.237 µg·h/mL
- Cmax [2, 6]: 0.086 µg/mL
- Tmax ([2]; male Beagle dogs, capsules): 40 min
- Appearance ([3]; 5 days): White
- Purity (%) ([3]; 5 days): 99.55%
- Appearance ([3]; 10 days): White
- Purity (%) ([3]; 10 days): 99.39%
- Appearance ([3]; 30 days): White
- Purity (%) ([3]; 30 days): 99.42%
- changes of appearance, chemical purity and crystal form ([3]; high-humidity, up to 30 days): no obvious changes
- Appearance ([4]; 5 days): White
- Purity (%) ([4]; 5 days): 99.53%
- Appearance ([4]; 13 days): White
- Purity (%) ([4]; 13 days): 99.31%
- Appearance ([4]; 30 days): White
- Purity (%) ([4]; 30 days): 99.43%
- changes of appearance, chemical purity and crystal form ([4]; light, up to 30 days): no obvious changes
- Appearance ([5]; 0 days (initial sample)): White
- Purity (%) ([5]; 0 days (initial sample)): 99.44%
- Appearance [5, 7]: White
- Purity (%) [5, 7]: 99.33%
- Appearance [5, 8]: White
- Purity (%) [5, 8]: 99.35%
- Appearance [5, 9]: White
- Purity (%) [5, 9]: 99.45%
- changes of appearance, chemical purity and crystal form ([5]; high-temperature, up to 30 days): no obvious changes
SMILES: O=C(O)c1ccc2c(c1)Oc1ccc(OCc3c(-c4c(Cl)cccc4Cl)noc3C3CC3)nc1C1(CC1)C2 [Crystal form A, 2-((5-cyclopropyl-3-(2,6-dichlorophenyl)isoxazol-4-yl)methoxy)-10H-spiro[benzo[6,7]oxepino[3,2-b]pyridine-11,1′-cyclopropane]-7-carboxylic acid]
